From publication PMC5404560, “Towards Selective Mycobacterial ClpP1P2 Inhibitors with Reduced Activity against the Human Proteasome” (Antimicrobial Agents and Chemotherapy, 2017)
Where “and” joins values, the source holds several entries; their conditions need not be identical. Equal entries are not always repeated.

Legend:
M. smegmatis ΔprcAB = assay type: cell-based; conditions: for M. smegmatis ΔprcAB MIC50: 24 h exposure, OD600, concentration inhibiting 50% of growth; for improvement of bacterial-growth inhibition compared to compound 1: M. smegmatis ΔprcAB
ClpP1P2 = ClpP1P2 (Mycolicibacterium smegmatis, UniProt A0R197+A0R198); experiment: ClpP1P2 inhibition whole-cell RFP-SsrA reporter assay; conditions: M. smegmatis ΔprcAB IC50 (μM) for ClpP1P2, whole-cell RFP-SsrA reporter, 3 h incubation
HepG2 proteasome = HepG2 proteasome (Homo sapiens, UniProt P20618+P28074); experiment: Cell-based proteasome CT-like peptidase inhibition assay (Proteasome-Glo)
Description: A cell-based CT-like peptidase assay was performed using the Proteasome-Glo cell-based assay reagent (Promega) according to the manufacturer's guidelines. Briefly, HepG2 cells (10^4 cells/well) were treated with the compounds indicated in the figures for 2 h, followed by incubation with the luminescent substrate for 10 min. Luminescence was detected with a Tecan M200 Pro plate reader.

ClpP1P2, sequence (A0R198 4-203): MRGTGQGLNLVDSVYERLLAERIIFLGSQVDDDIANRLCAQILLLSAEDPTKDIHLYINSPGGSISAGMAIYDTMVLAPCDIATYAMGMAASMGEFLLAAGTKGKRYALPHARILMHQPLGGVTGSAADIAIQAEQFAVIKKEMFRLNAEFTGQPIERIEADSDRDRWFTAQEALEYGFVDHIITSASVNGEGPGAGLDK
ClpP1P2, sequence (A0R197 17-218): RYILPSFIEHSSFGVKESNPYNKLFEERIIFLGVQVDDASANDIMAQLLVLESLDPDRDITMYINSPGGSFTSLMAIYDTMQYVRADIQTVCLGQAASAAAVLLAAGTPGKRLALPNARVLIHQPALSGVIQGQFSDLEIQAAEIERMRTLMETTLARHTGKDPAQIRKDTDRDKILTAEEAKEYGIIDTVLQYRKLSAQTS

Structure (SMILES): O=C(N[C@@H](Cc1ccccc1)C(=O)N[C@@H](CC1CCCCC1)B(O)O)c1cnccn1 (mixture of isomers) [Compound 29, ((R)-2-cyclohexyl-1-((S)-3-phenyl-2-(pyrazine-2-carboxamido)propanamido)ethyl)boronic acid]
- M. smegmatis ΔprcAB MIC50 (M. smegmatis ΔprcAB): 22.5 ± 2.5 µM
- IC50 (ClpP1P2): 27 ± 16 µM
- IC50 (HepG2 proteasome): 127 ± 2 nM

Structure (SMILES): CC(C)C[C@H](NC(=O)[C@H](Cc1ccccc1)NC(=O)Cc1ccccc1)B(O)O (mixture of isomers) [Compound 34, ((R)-3-methyl-1-((S)-3-phenyl-2-(2-phenylacetamido)propanamido)butyl)boronic acid]
- M. smegmatis ΔprcAB MIC50 (M. smegmatis ΔprcAB): 12 ± 0 µM
- IC50 (ClpP1P2): 9 ± 3 µM
- IC50 (HepG2 proteasome): 6 ± 1 nM

Structure (SMILES): CC(C)C[C@H](NC(=O)[C@H](Cc1ccccc1)NC(=O)c1cnc(-c2ccccc2)nc1)B(O)O (mixture of isomers) [Compound 38, ((R)-3-methyl-1-((S)-3-phenyl-2-(2-phenylpyrimidine-5-carboxamido)propanamido)butyl)boronic acid]
- M. smegmatis ΔprcAB MIC50 (M. smegmatis ΔprcAB): 2 ± 0 µM
- IC50 (ClpP1P2): 1.7 ± 1 µM
- IC50 (HepG2 proteasome): 6 ± 1 nM

Structure (SMILES): CC(C)C[C@H](NC(=O)[C@H](Cc1ccccc1)NC(=O)c1ncc(-c2ccccc2)o1)B(O)O (mixture of isomers) [Compound 42, ((R)-3-methyl-1-((S)-3-phenyl-2-(5-phenyloxazole-2-carboxamido)propanamido)butyl)boronic acid]
- M. smegmatis ΔprcAB MIC50 (M. smegmatis ΔprcAB): 8 ± 0 µM
- IC50 (ClpP1P2): 6.7 ± 4.1 µM
- IC50 (HepG2 proteasome): 6 ± 1 nM

Structure (SMILES): CC(C)C[C@H](NC(=O)CCc1ccccc1)B(O)O [Compound 25, (R)-(3-methyl-1-(3-phenylpropanamido)butyl)boronic acid]
- M. smegmatis ΔprcAB MIC50 (M. smegmatis ΔprcAB): >200 µM
- IC50 (ClpP1P2): > 200 µM
- IC50 (HepG2 proteasome): 250 nM

Structure (SMILES): CC(C)C[C@H](NC(=O)[C@@H](N)Cc1ccccc1)B(O)O [Compound 26, ((R)-1-((S)-2-amino-3-phenylpropanamido)-3-methylbutyl)boronic acid]
- M. smegmatis ΔprcAB MIC50 (M. smegmatis ΔprcAB): 100 ± 0 µM
- IC50 (ClpP1P2): > 200 µM
- IC50 (HepG2 proteasome): 80 ± 10 nM

Structure (SMILES): CCCCC[C@H](NC(=O)[C@H](Cc1ccccc1)NC(=O)c1cnccn1)B(O)O [Compound 27, ((R)-1-((S)-3-phenyl-2-(pyrazine-2-carboxamido)propanamido)hexyl)boronic acid]
- M. smegmatis ΔprcAB MIC50 (M. smegmatis ΔprcAB): 3 ± 0 µM
- improvement of bacterial-growth inhibition compared to compound 1 (M. smegmatis ΔprcAB): 2 fold
- IC50 (ClpP1P2): 4 µM
- IC50 (HepG2 proteasome): 30 nM

Structure (SMILES): O=C(N[C@@H](Cc1ccccc1)C(=O)N[C@H](B(O)O)C1CCCCC1)c1cnccn1 [Compound 28, ((R)-cyclohexyl((S)-3-phenyl-2-(pyrazine-2-carboxamido)propanamido)methyl)boronic acid]
- M. smegmatis ΔprcAB MIC50 (M. smegmatis ΔprcAB): 16 ± 4 µM
- IC50 (ClpP1P2): 33 ± 12 µM
- IC50 (HepG2 proteasome): 155 ± 25 nM

Structure (SMILES): O=C(N[C@@H](Cc1ccccc1)C(=O)N[C@@H](CCC1CCCCC1)B(O)O)c1cnccn1 [Compound 30, ((R)-3-cyclohexyl-1-((S)-3-phenyl-2-(pyrazine-2-carboxamido)propanamido)propyl)boronic acid]
- M. smegmatis ΔprcAB MIC50 (M. smegmatis ΔprcAB): 3.5 µM and 3.5 ± 0.5 µM
- IC50 (ClpP1P2): 25 µM
- IC50 (HepG2 proteasome): 500 ± 10 nM

Structure (SMILES): CC(=O)N[C@@H](Cc1ccccc1)C(=O)N[C@@H](CC(C)C)B(O)O [Compound 33, ((R)-1-((S)-2-acetamido-3-phenylpropanamido)-3-methylbutyl)boronic acid]
- M. smegmatis ΔprcAB MIC50 (M. smegmatis ΔprcAB): 50 ± 0 µM
- IC50 (ClpP1P2): 42 µM and 41.7 µM
- IC50 (HepG2 proteasome): 10 ± 5 nM

Structure (SMILES): CC(C)C[C@H](NC(=O)[C@H](Cc1ccccc1)NC(=O)c1ccccc1)B(O)O [Compound 35, ((R)-1-((S)-2-benzamido-3-phenylpropanamido)-3-methylbutyl)boronic acid]
- M. smegmatis ΔprcAB MIC50 (M. smegmatis ΔprcAB): 3.5 ± 0.5 µM
- IC50 (ClpP1P2): 3.3 ± 0.5 µM
- IC50 (HepG2 proteasome): 6 ± 1 nM

Structure (SMILES): CC(C)C[C@H](NC(=O)[C@H](Cc1ccccc1)NC(=O)c1cccnc1)B(O)O [Compound 36, ((R)-3-methyl-1-((S)-2-(nicotinamido)-3-phenylpropanamido)butyl)boronic acid]
- M. smegmatis ΔprcAB MIC50 (M. smegmatis ΔprcAB): 6 ± 0 µM
- IC50 (ClpP1P2): 4 ± 1.4 µM
- IC50 (HepG2 proteasome): 30 nM

Structure (SMILES): CC(C)C[C@H](NC(=O)[C@H](Cc1ccccc1)NC(=O)c1ccccn1)B(O)O [Compound 37, ((R)-3-methyl-1-((S)-3-phenyl-2-(picolinamido)propanamido)butyl)boronic acid]
- M. smegmatis ΔprcAB MIC50 (M. smegmatis ΔprcAB): 15 ± 0 µM
- IC50 (ClpP1P2): 17 ± 5.7 µM
- IC50 (HepG2 proteasome): 6 ± 1 nM

Structure (SMILES): CC(C)C[C@H](NC(=O)[C@H](Cc1ccccc1)NC(=O)c1cc(-c2ccccc2)ncn1)B(O)O [Compound 39, ((R)-3-methyl-1-((S)-3-phenyl-2-(6-phenylpyrimidine-4-carboxamido)propanamido)butyl) boronic acid]
- M. smegmatis ΔprcAB MIC50 (M. smegmatis ΔprcAB): >200 µM
- IC50 (ClpP1P2): > 200 µM
- IC50 (HepG2 proteasome): 6 ± 1 nM

Structure (SMILES): CC(C)C[C@H](NC(=O)[C@H](Cc1ccccc1)NC(=O)c1cccc2ncsc12)B(O)O [Compound 43]
- M. smegmatis ΔprcAB MIC50 (M. smegmatis ΔprcAB): 3 ± 0 µM
- improvement of bacterial-growth inhibition compared to compound 1 (M. smegmatis ΔprcAB): 2 fold
- IC50 (ClpP1P2): 2.75 ± 1.25 µM
- IC50 (HepG2 proteasome): 6 ± 1 nM

Structure (SMILES): CC(C)C[C@H](NC(=O)[C@H](Cc1ccccc1)NC(=O)[C@H](Cc1ccccc1)NC(=O)c1cnccn1)B(O)O [Compound 44]
- M. smegmatis ΔprcAB MIC50 (M. smegmatis ΔprcAB): 75 ± 0 µM
- IC50 (ClpP1P2): > 200 µM
- IC50 (HepG2 proteasome): 6 ± 1 nM

Structure (SMILES): CC(C)C[C@H](NC(=O)[C@H](Cc1ccccc1)NC(=O)N1CCCCC1)B(O)O [Compound 45, ((R)-3-methyl-1-((S)-3-phenyl-2-(piperidine-1-carboxamido)propanamido)butyl)boronic acid]
- M. smegmatis ΔprcAB MIC50 (M. smegmatis ΔprcAB): 19 ± 5.4 µM
- IC50 (ClpP1P2): 22.5 ± 2.5 µM
- IC50 (HepG2 proteasome): 23 ± 8 nM

Structure (SMILES): CC(=O)N[C@@H](Cc1ccccc1)C(=O)N[C@@H](Cc1ccccc1)B(O)O [Compound 46, ((R)-1-((S)-2-acetamido-3-phenylpropanamido)-2-phenylethyl)boronic acid]
- M. smegmatis ΔprcAB MIC50 (M. smegmatis ΔprcAB): 50 ± 0 µM
- IC50 (ClpP1P2): 50 µM
- IC50 (HepG2 proteasome): 218 ± 158 nM

Structure (SMILES): O=C(N[C@@H](Cc1ccccc1)C(=O)N[C@@H](CCC1CCCCC1)B(O)O)c1cccc2ncsc12 [Compound 47, ((R)-1-((S)-2-(benzo[d]thiazole-7-carboxamido)-3-phenylpropanamido)-3-cyclohexylpropyl)boronic acid]
- M. smegmatis ΔprcAB MIC50 (M. smegmatis ΔprcAB): >200 µM
- IC50 (ClpP1P2): > 200 µM
- IC50 (HepG2 proteasome): 288 ± 88 nM

Structure (SMILES): O=C(N[C@@H](Cc1ccccc1)C(=O)N[C@@H](CCC1CCCCC1)B(O)O)c1ccccc1 [Compound 48, ((R)-1-((S)-2-benzamido-3-phenylpropanamido)-3-cyclohexylpropyl)boronic acid]
- M. smegmatis ΔprcAB MIC50 (M. smegmatis ΔprcAB): >200 µM
- IC50 (ClpP1P2): > 200 µM
- IC50 (HepG2 proteasome): > 500 nM

Structure (SMILES): O=C(N[C@@H](Cc1ccccc1)C(=O)N[C@@H](CCC1CCCCC1)B(O)O)c1ccccc1F [Compound 49, ((R)-3-cyclohexyl-1-((S)-2-(2-fluorobenzamido)-3-phenylpropanamido)propyl)boronic acid]
- M. smegmatis ΔprcAB MIC50 (M. smegmatis ΔprcAB): >200 µM
- IC50 (ClpP1P2): > 200 µM
- IC50 (HepG2 proteasome): 500 nM

Structure (SMILES): CC(C)(C(=O)N[C@@H](Cc1ccccc1)C(=O)N[C@@H](CCC1CCCCC1)B(O)O)n1cccc1 [Compound 50, ((R)-3-cyclohexyl-1-((S)-2-(2-methyl-2-(1H-pyrrol-1-yl)propanamido)-3-phenylpropanamido)propyl)boronic acid]
- M. smegmatis ΔprcAB MIC50 (M. smegmatis ΔprcAB): 150 ± 0 µM
- IC50 (ClpP1P2): 200 µM
- IC50 (HepG2 proteasome): > 500 nM
